The values below come from US7960556B2, “Thiadiazole derivatives for the treatment of neuro-degenerative diseases” (NV reMYND, priority 2006, dated 2011).

The assay relates to α-synuclein cytotoxicity in M17-SYNwt cells. The assay is described as follows: α-synuclein cytotoxicity assay: LDH leakage from paraquat-treated M17-SYNwt neuroblastoma cells.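 For all read-outs here: paraquat at 32 mM co-added with compound, 40 h exposure, LDH activity released into the culture medium measured, references are DMSO-only cells and paraquat plus DMSO cells.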 Particulars: Homo sapiens, Neuroblastoma cell; for Emax: read-out: % Inhib. In general terms: LDH leaks from cells whose membrane has failed.

One may read the EC50 as the concentration at which the effect is half-maximal. Low values mean an effect from little substance, high ones a need for much substance. `CCc1ccc(C(=O)N2CCN(c3nc(Cc4cccc(OC)c4)ns3)CC2C)cc1` (stereo not drawn) [compound 143, 1-(4-ethylbenzoyl)-4-[3-(3-methoxybenzyl)-1,2,4-thiadiazol-5-yl]-2-methylpiperazine]: the EC50 amounted to 560 nM and the Emax was determined as 89%.
For the molecule `CC1CN(c2nc(Cc3ccc(F)cc3)ns2)CCN1C(=O)c1cccc(C(F)(F)F)c1` (stereo not drawn) [compound 145, 1-(3-trifluoromethylbenzoyl)-4-[3-(4-fluorobenzyl)-1,2,4-thiadiazol-5-yl]-2-methylpiperazine], the EC50 is 620 nM and the Emax was found to be 60%.
For the molecule `COc1cccc(Cc2nsc(N3CCN(C(=O)c4ccc(C(C)(C)C)cc4)C(C)C3)n2)c1` (stereo not drawn) [compound 146, 1-(4-tert-butylbenzoyl)-4-[3-(3-methoxybenzyl)-1,2,4-thiadiazol-5-yl]-2-methylpiperazine], the EC50 came to 720 nM and the Emax amounted to 94%.
Consider `CCc1ccc(C(=O)N2CCN(c3nc(Cc4ccc(C)cc4)ns3)CC2C)cc1` (stereo not drawn) [compound 147, 1-(4-ethylbenzoyl)-4-[3-(4-methylbenzyl)-1,2,4-thiadiazol-5-yl]-2-methylpiperazine], for which the concentration for a half-maximal effect (EC50) turned out to be 840 nM and the Emax stood at 88%.
On to `CC1CN(c2nc(Cc3ccc(F)cc3)ns2)CCN1C(=O)c1ccccc1Br` (stereo not drawn) [compound 148, 1-(2-bromobenzoyl)-4-[3-(4-fluorobenzyl)-1,2,4-thiadiazol-5-yl]-2-methylpiperazine], for which the half-maximal effective concentration (EC50) was 860 nM and the Emax amounted to 56%.
Taken in the same sequence, the figures for `Cc1ccc(Cc2nsc(N3CCN(C(=O)c4ccccc4F)C(C)C3)n2)cc1` (stereo not drawn) [compound 149, 1-(2-fluorobenzoyl)-4-[3-(4-methylbenzyl)-1,2,4-thiadiazol-5-yl]-2-methylpiperazine] were 980 nM and 105%.
Taken in the same sequence, the figures for `CC1CN(c2nc(Cc3ccccc3)ns2)CCN1C(=O)c1cccc(F)c1` (stereo not drawn) [compound 150, 1-(3-fluorobenzoyl)-4-[3-benzyl-1,2,4-thiadiazol-5-yl]-2-methylpiperazine] were 1140 nM and 99%.
Take `Cc1ccc(Cc2nsc(N3CCN(C(=O)c4ccc(F)cc4)C(C)C3)n2)cc1` (stereo not drawn) [compound 151, 1-(4-fluorobenzoyl)-4-[3-(4-methylbenzyl)-1,2,4-thiadiazol-5-yl]-2-methylpiperazine]: the EC50 came to 1140 nM and the Emax turned out to be 73%.
Taken in the same sequence, the figures for `Cc1ccccc1C(=O)N1CCN(c2nc(Cc3ccc(F)cc3)ns2)CC1` [compound 152, 1-(2-methylbenzoyl)-4-[3-(4-fluorobenzyl)-1,2,4-thiadiazol-5-yl]piperazine] were 1150 nM and 66%.
As for `O=C(c1ccc(F)cc1)N1CCN(c2nc(Cc3ccc(Cl)cc3)ns2)CC1` [compound 153, 1-(4-fluorobenzoyl)-4-[3-(4-chlorobenzyl)-1,2,4-thiadiazol-5-yl]piperazine], it took 1440 nM to reach a half-maximal effect (EC50) and the Emax is 53%.
Taken in the same sequence, the figures for `CC1CN(c2nc(Cc3ccccc3)ns2)CCN1C(=O)c1ccc(F)cc1` (stereo not drawn) [compound 154, 1-(4-fluorobenzoyl)-4-[3-benzyl-1,2,4-thiadiazol-5-yl]-2-methylpiperazine] were 1580 nM and 75%.
Taken in the same sequence, the figures for `Cc1ccc(Cc2nsc(N3CCN(C(=O)c4ccc(Cl)cc4)CC3)n2)cc1` [compound 155, 1-(4-chlorobenzoyl)-4-[3-(4-methylbenzyl)-1,2,4-thiadiazol-5-yl]piperazine] were 1640 nM and 76%.
Taken in the same sequence, the figures for `Cc1ccc(Cc2nsc(N3CCN(C(=O)c4cccc(F)c4)C(C)C3)n2)cc1` (stereo not drawn) [compound 156, 1-(3-fluorobenzoyl)-4-[3-(4-methylbenzyl)-1,2,4-thiadiazol-5-yl]-2-methylpiperazine] were 1670 nM and 86%.
Regarding `O=C(c1cccc(F)c1)N1CCN(c2nc(Cc3ccc(Cl)cc3)ns2)CC1` [compound 157, 1-(3-fluorobenzoyl)-4-[3-(4-chlorobenzyl)-1,2,4-thiadiazol-5-yl]piperazine], the EC50 came to 1700 nM and the Emax came out at 70%.
As to `Cc1ccc(Cc2nsc(N3CCN(C(=O)c4ccccc4)CC3)n2)cc1` [compound 158, 1-benzoyl-4-[3-(4-methylbenzyl)-1,2,4-thiadiazol-5-yl]piperazine], the EC50 amounted to 2100 nM and the Emax is 57%.
For the molecule `O=C(c1ccccc1F)N1CCN(c2nc(Cc3ccc(Cl)cc3)ns2)CC1` [compound 159, 1-(2-fluorobenzoyl)-4-[3-(4-chlorobenzyl)-1,2,4-thiadiazol-5-yl]piperazine], a half-maximal effect (EC50) was put at 2850 nM and the Emax was found to be 48%.
With `Cc1ccc(Cc2nsc(N3CCN(C(=O)c4ccc(F)cc4)CC3)n2)cc1` [compound 160, 1-(4-fluorobenzoyl)-4-[3-(4-methylbenzyl)-1,2,4-thiadiazol-5-yl]piperazine], the EC50 worked out at 2870 nM and the Emax was found to be 88%.
Taken in the same sequence, the figures for `Cc1ccc(Cc2nsc(N3CCN(C(=O)c4ccc5c(c4)OCO5)C(C)C3)n2)cc1` (stereo not drawn) [compound 161, 1-(1,3-benzodioxol-5-ylcarbonyl)-4-[3-(4-methylbenzyl)-1,2,4-thiadiazol-5-yl]-2-methyl + B176piperazine] were 3360 nM and 101%.
Taken in the same sequence, the figures for `Cc1ccc(Cc2nsc(N3CCN(C(=O)c4cccc(F)c4)CC3)n2)cc1` [compound 162, 1-(3-flurorbenzoyl)-4-[3-(4-methylbenzyl)-1,2,4-thiadiazol-5-yl]piperazine] were 3400 nM and 101%.
In the case of `O=C(c1ccc(F)cc1)N1CCN(c2nc(Cc3ccccc3)ns2)CC1` [compound 163, 1-(4-fluorobenzoyl)-4-[3-benzyl-1,2,4-thiadiazol-5-yl]piperazine], the response was half-maximal at 3610 nM (EC50) and the Emax was 67%.
As for `Cc1ccc(Cc2nsc(N3CCN(C(=O)c4ccc(Br)cc4)CC3)n2)cc1` [compound 164, 1-(4-bromobenzoyl)-4-[3-(4-methylbenzyl)-1,2,4-thiadiazol-5-yl]piperazine], the EC50 turned out to be 3860 nM and the Emax stood at 60%.
For the molecule `CCc1ccc(C(=O)N2CCN(c3nc(Cc4ccc(Cl)cc4)ns3)CC2)cc1` [compound 165, 1-(4-ethylbenzoyl)-4-[3-(4-chlorobenzyl)-1,2,4-thiadiazol-5-yl]piperazine], the Emax is 133%.
Still for that read-out and setting: as for `CC1CN(c2nc(Cc3ccc(F)cc3)ns2)CCN1C(=O)c1ccccc1Cl` (stereo not drawn) [compound 166, 1-(2-chlorobenzoyl)-4-[3-(4-fluorobenzyl)-1,2,4-thiadiazol-5-yl]-2-methylpiperazine], the figure is 123%; as for `CC1CN(c2nc(Cc3ccc(Cl)cc3)ns2)CCN1C(=O)c1ccccc1F` (stereo not drawn) [compound 167, 1-(2-fluorobenzoyl)-4-[3-(4-chlorobenzyl)-1,2,4-thiadiazol-5-yl]-2-methylpiperazine], 117%; as for `COc1cccc(Cc2nsc(N3CCN(C(=O)c4ccc(C(F)(F)F)cc4)C(C)C3)n2)c1` (stereo not drawn) [compound 168, 1-(4-trifluoromethylbenzoyl)-4-[3-(3-methoxybenzyl)-1,2,4-thiadiazol-5-yl]-2-methylpiperazine], 91%.
As for `Cc1ccc(Cc2nsc(N3CCN(C(=O)c4ccccc4)C(C)C3)n2)cc1` (stereo not drawn) [compound 169, 1-benzoyl-4-[3-(4-methylbenzyl)-1,2,4-thiadiazol-5-yl]-2-methylpiperazine], the Emax worked out at 91%.
The same measure, in the same setting: as for `COc1cccc(Cc2nsc(N3CCN(C(=O)c4ccc(Br)cc4)C(C)C3)n2)c1` (stereo not drawn) [compound 170, 1-(4-bromobenzoyl)-4-[3-(3-methoxybenzyl)-1,2,4-thiadiazol-5-yl]-2-methylpiperazine], the figure is 89%.
With `Cc1ccc(Cc2nsc(N3CCN(C(=O)c4ccc(C(F)(F)F)cc4)CC3)n2)cc1` [compound 171, 1-(4-trifluoromethylbenzoyl)-4-[3-(4-methylbenzyl)-1,2,4-thiadiazol-5-yl]piperazine], the Emax was 86%.
The same measure, in the same setting: as for `Cc1ccc(C(=O)N2CCN(c3nc(Cc4ccc(F)cc4)ns3)CC2C)cc1[N+](=O)[O-]` (stereo not drawn) [compound 172, 1-(3-nitro-4-methylbenzoyl)-4-[3-(4-fluorobenzyl)-1,2,4-thiadiazol-5-yl]-2-methylpiperazine], the figure is 86%; as for `COc1cccc(Cc2nsc(N3CCN(C(=O)c4ccccc4)C(C)C3)n2)c1` (stereo not drawn) [compound 173, 1-benzoyl-4-[3-(3-methoxybenzyl)-1,2,4-thiadiazol-5-yl]-2-methylpiperazine], 85%; as for `COc1cccc(Cc2nsc(N3CCN(C(=O)c4ccc(Cl)cc4)C(C)C3)n2)c1` (stereo not drawn) [compound 174, 1-(4-chlorobenzoyl)-4-[3-(3-methoxybenzyl)-1,2,4-thiadiazol-5-yl]-2-methylpiperazine], 83%.
On the same count and under the same terms, with `Cc1ccc(Cc2nsc(N3CCN(C(=O)c4ccccc4F)CC3)n2)cc1` [compound 175, 1-(2-fluorobenzoyl)-4-[3-(4-methylbenzyl)-1,2,4-thiadiazol-5-yl]piperazine] the figure was 78%.
Same read-out and setting: with `CCCCCCc1ccc(C(=O)N2CCN(c3nc(Cc4ccc(C)cc4)ns3)CC2)cc1` [compound 176, 1-(4-hexylbenzoyl)-4-[3-(4-methylbenzyl)-1,2,4-thiadiazol-5-yl]piperazine] the figure was 77%; with `CC1CN(c2nc(Cc3ccc(F)cc3)ns2)CCN1C(=O)c1ccc([N+](=O)[O-])cc1Cl` (stereo not drawn) [compound 177, 1-(2-chloro-4-nitrobenzoyl)-4-[3-(4-fluorobenzyl)-1,2,4-thiadiazol-5-yl]-2-methylpiperazine], 77%.
On to `CC1CN(c2nc(Cc3ccc(F)cc3)ns2)CCN1C(=O)c1ccc2c(c1)OCO2` (stereo not drawn) [compound 178, 1-(1,3-benzodioxol-5-ylcarbonyl)-4-[3-(4-fluorobenzyl)-1,2,4-thiadiazol-5-yl]-2-methylpiperazine], for which the Emax amounted to 68%.
`CC1CN(c2nc(Cc3ccc(F)cc3)ns2)CCN1C(=O)c1cccc(F)c1` (stereo not drawn) [compound 179, 1-(3-fluorobenzoyl)-4-[3-(4-fluorobenzyl)-1,2,4-thiadiazol-5-yl]-2-methylpiperazine]: the Emax was 68%.
